31 molecules from BindingDB's records for doi:10.1021/jm050292k (Maxim Pharmaceuticals, 2005) can be followed below.

A word on the EC50: it is the concentration at which the effect is half-maximal. Low values mean an effect from little substance, high ones a need for much substance.

Experiment [1] is described as follows: Caspase-3 activation activity tested in H1299 lung cancer cells done for 24 or 48 hr at 37 degree C.
Experiment [2] in a line: Caspase-3 activation activity tested in DLD1 colon cells done for 24 or 48 hr at 37 degree C.
Experiment [3] is described as follows: Caspase-3 activation activity tested in T47D breast cells done for 24 or 48 hr at 37 degree C.
A short description of experiment [4]: Caspase-3 activation activity tested in […] cancer cells done for 24 or 48 hr at 37 degree C.
Experiment [5] is described as follows: Caspase-3 activation activity tested in HT-29 cancer cells done for 24 or 48 hr at 37 degree C.
Experiment [6] can be described thus: Caspase-3 activation activity tested in LnCap cancer cells done for 24 or 48 hr at 37 degree C.
Experiment [7] in a line: Caspase-3 activation activity tested in ZR-75-1 cancer cells done for 24 or 48 hr at 37 degree C.
Experiment [8] is described as follows: Caspase activation activity of compound in cell line H-1299 nonsmall-cell lung cancer cells.

For the molecule `Clc1ccc(-c2noc(-c3sccc3Cl)n2)cn1` [2-Chloro-5-[5-(3-chloro-thiophen-2-yl)-[1,2,4]oxadiazol-3-yl]-pyridine], the results for the EC50 in experiment [1], in experiment [2] and in experiment [3] were greater than 10 µM, 0.29 µM and 0.75 µM, respectively.
`Clc1ccc(-c2noc(-c3occc3Br)n2)nc1` [2-[5-(3-Bromo-furan-2-yl)-[1,2,4]oxadiazol-3-yl]-5-chloro-pyridine]: the results for the EC50 in experiment [1], in experiment [2] and in experiment [3] were greater than 10 µM, 0.84 µM and 1.61 µM, respectively.
With `FC(F)(F)c1ccc(-c2noc(-c3occc3Br)n2)nc1` [2-[5-(3-Bromo-furan-2-yl)-[1,2,4]oxadiazol-3-yl]-5-trifluoromethyl-pyridine], the EC50 is greater than 10 µM in experiment [1], 0.7 µM in experiment [2] and 0.61 µM in experiment [3].
`FC(F)(F)c1ccc(-c2noc(-c3sccc3Cl)n2)nc1` [2-[5-(3-Chloro-thiophen-2-yl)-[1,2,4]oxadiazol-3-yl]-5-trifluoromethyl-pyridine]: the EC50 was greater than 10 µM in experiment [1], 0.41 µM in experiment [2] and 1.44 µM in experiment [3].
Consider `Clc1ccc(-c2noc(-c3sccc3Cl)n2)cc1` [3-(4-Chloro-phenyl)-5-(3-chloro-thiophen-2-yl)-[1,2,4]oxadiazole], for which the EC50 in experiment [1] is greater than 40 µM; in experiment [2], 0.79 µM; in experiment [3] it was 1.77 µM.
As to `CCOc1ccsc1-c1nc(-c2ccc(Cl)cc2)no1` [3-(4-Chloro-phenyl)-5-(3-ethoxy-thiophen-2-yl)-[1,2,4]oxadiazole], the half-maximal effective concentration (EC50) in experiment [1] was greater than 40 µM; in experiment [2], greater than 10 µM; in experiment [3], greater than 40 µM.
For the molecule `Clc1ccc(-c2noc(-c3ccco3)n2)cc1` [3-(4-Chloro-phenyl)-5-furan-2-yl-[1,2,4]oxadiazole], the figures for the EC50 in experiment [1], in experiment [2] and in experiment [3] were greater than 40 µM, greater than 10 µM and 17.4 µM, respectively.
As for `Clc1ccc(-c2noc(-c3cccs3)n2)cc1` [3-(4-Chloro-phenyl)-5-thiophen-2-yl-[1,2,4]oxadiazole], the EC50 is greater than 40 µM in experiment [1], greater than 10 µM in experiment [2] and greater than 40 µM in experiment [3].
In the case of `Cc1cc(Cl)ccc1-c1noc(-c2sccc2Cl)n1` [3-(4-chloro-2-methylphenyl)-5-(3-chlorothiophen-2-yl)-1,2,4-oxadiazole], the values for the EC50 in experiment [1], in experiment [2] and in experiment [3] were greater than 40 µM, 0.38 µM and 0.91 µM, respectively.
Turning to `Clc1ccc(-c2noc(-c3ccccc3Cl)n2)cc1` [5-(2-Chloro-phenyl)-3-(4-chloro-phenyl)-[1,2,4]oxadiazole], the EC50 in experiment [1] and in experiment [3] was greater than 40 µM each time.
As to `FC(F)(F)c1ccc(-c2noc(-c3ccccc3Cl)n2)cc1` [5-(2-Chloro-phenyl)-3-(4-trifluoromethyl-phenyl)-[1,2,4]oxadiazole], the concentration for a half-maximal effect (EC50) in experiment [1] and in experiment [3] was greater than 40 µM each time.
For the molecule `Clc1ccc(-c2noc(-c3occc3Br)n2)cc1` [5-(3-Bromo-furan-2-yl)-3-(4-chloro-phenyl)-[1,2,4]oxadiazole], the EC50 in experiment [1] is greater than 10 µM; in experiment [2] it was 0.83 µM; in experiment [3], 1.08 µM.
As for `FC(F)(F)c1ccc(-c2noc(-c3occc3Br)n2)cc1` [5-(3-Bromo-furan-2-yl)-3-(4-trifluoromethyl-phenyl)-[1,2,4]oxadiazole], the 50% effective concentration (EC50) in experiment [1] was greater than 10 µM; in experiment [2], 1.07 µM; in experiment [3], 2.01 µM.
Regarding `Clc1ccc(-c2noc(-c3sccc3Br)n2)cc1` [5-(3-Bromo-thiophen-2-yl)-3-(4-chloro-phenyl)-[1,2,4]oxadiazole], the figures for the 50% effective concentration (EC50) in experiment [1], in experiment [2] and in experiment [3] were greater than 10 µM, 1.32 µM and 3.32 µM, respectively.
Take `Cc1csc(-c2nc(-c3ccc(Cl)cc3)no2)c1Cl` [5-(3-Chloro-4-methyl-thiophen-2-yl)-3-(4-chloro-phenyl)-[1,2,4]oxadiazole]: the concentration for a half-maximal effect (EC50) in experiment [1] was greater than 40 µM; in experiment [2], greater than 10 µM; in experiment [3], greater than 40 µM.
`Clc1ccc(-c2noc(-c3occc3Cl)n2)cc1` [5-(3-Chloro-furan-2-yl)-3-(4-chloro-phenyl)-[1,2,4]oxadiazole]: the EC50 in experiment [1] is greater than 10 µM; in experiment [2], 1.49 µM; in experiment [3] it was 1.74 µM.
With `O=[N+]([O-])c1ccc(-c2noc(-c3occc3Cl)n2)cc1` [5-(3-Chloro-furan-2-yl)-3-(4-nitro-phenyl)-[1,2,4]oxadiazole], the values for the EC50 in experiment [1] and in experiment [3] were greater than 40 µM and 1.97 µM, respectively.
In the case of `FC(F)(F)c1ccc(-c2noc(-c3occc3Cl)n2)cc1` [5-(3-Chloro-furan-2-yl)-3-(4-trifluoromethyl-phenyl)-[1,2,4]oxadiazole], the concentration giving a half-maximal response (EC50) is greater than 10 µM in experiment [1], 0.48 µM in experiment [2] and 0.52 µM in experiment [3].
As to `FC(F)(F)c1cccc(-c2noc(-c3sccc3Cl)n2)c1` [5-(3-Chloro-thiophen-2-yl)-3-(3-trifluoromethyl-phenyl)-[1,2,4]oxadiazole], the EC50 in experiment [1] was greater than 10 µM; in experiment [2], 0.28 µM; in experiment [3], 0.9 µM.
For `FC(F)(F)c1cc(-c2noc(-c3sccc3Cl)n2)ccc1Cl` [5-(3-Chloro-thiophen-2-yl)-3-(4-chloro-3-trifluoromethyl-phenyl)-[1,2,4]oxadiazole], in that order: greater than 10 µM, 0.56 µM and 0.93 µM.
On to `COc1ccc(-c2noc(-c3sccc3Cl)n2)cc1` [5-(3-Chloro-thiophen-2-yl)-3-(4-methoxy-phenyl)-[1,2,4]oxadiazole], for which the concentration giving a half-maximal response (EC50) in experiment [1] was greater than 10 µM; in experiment [2], 1.45 µM; in experiment [3], 4.17 µM.
In the case of `FC(F)(F)Oc1ccc(-c2noc(-c3sccc3Cl)n2)cc1` [5-(3-Chloro-thiophen-2-yl)-3-(4-trifluoromethoxy-phenyl)-[1,2,4]oxadiazole], the EC50 in experiment [1] was greater than 10 µM; in experiment [2] it was 0.43 µM; in experiment [3], 0.89 µM.
For `FC(F)(F)c1ccc(-c2noc(-c3sccc3Cl)n2)cc1` [5-(3-Chloro-thiophen-2-yl)-3-(4-trifluoromethyl-phenyl)-[1,2,4]oxadiazole], the concentration giving a half-maximal response (EC50) was greater than 10 µM in experiment [4]; 0.76 µM in experiment [5]; greater than 10 µM in experiment [6]; greater than 40 µM in experiment [1]; 0.44 µM in experiment [2]; 3.34 µM in experiment [7]. For the same molecule, in experiment [3], it took 1.21 µM to reach a half-maximal effect (EC50).
For the molecule `Cc1ccc(-c2noc(-c3sccc3Cl)n2)cc1` [5-(3-Chloro-thiophen-2-yl)-3-p-tolyl-[1,2,4]oxadiazole], the EC50 in experiment [1] was greater than 10 µM; in experiment [2], 1.42 µM; in experiment [3], 3.66 µM.
`Clc1ccsc1-c1nc(-c2ccccc2)no1` [5-(3-Chloro-thiophen-2-yl)-3-phenyl-[1,2,4]oxadiazole]: the 50% effective concentration (EC50) in experiment [1] was greater than 40 µM; in experiment [2], 0.76 µM; in experiment [3], 2.82 µM.
For `Clc1ccc(-c2noc(-c3sccc3Cl)n2)cc1Cl` [5-(3-chlorothiophen-2-yl)-3-(3,4-dichlorophenyl)-1,2,4-oxadiazole], the EC50 was greater than 10 µM in experiment [1], 0.37 µM in experiment [2] and 1.41 µM in experiment [3].
With `Clc1ccc(-c2noc(-c3occc3Cl)n2)nc1` [5-Chloro-2-[5-(3-chloro-furan-2-yl)-[1,2,4]oxadiazol-3-yl]-pyridine], the EC50 in experiment [8] was greater than 10 µM; in experiment [2], 0.58 µM; in experiment [3], 1.11 µM.
For the molecule `Clc1ccc(-c2noc(-c3sccc3Cl)n2)nc1` [5-Chloro-2-[5-(3-chloro-thiophen-2-yl)-[1,2,4]oxadiazol-3-yl]-pyridine], the EC50 in experiment [1] was greater than 40 µM; in experiment [2] it was 0.39 µM; in experiment [3] it was 1.59 µM.
Consider `Cc1ccc(-c2noc(-c3cccs3)n2)cc1` [5-Thiophen-2-yl-3-p-tolyl-[1,2,4]oxadiazole], for which the values for the EC50 in experiment [1], in experiment [2] and in experiment [3] were greater than 40 µM, greater than 10 µM and greater than 40 µM, respectively.
Regarding `FC(F)(F)c1ccc(-c2noc(-c3sccc3Cl)n2)cn1` [5-[5-(3-Chloro-thiophen-2-yl)-[1,2,4]oxadiazol-3-yl]-2-trifluoromethyl-pyridine], the figures for the EC50 in experiment [1], in experiment [2] and in experiment [3] were greater than 10 µM, 0.24 µM and 0.92 µM, respectively.
For the molecule `CN(C)c1ccc(-c2noc(-c3sccc3Cl)n2)cc1` [{4-[5-(3-Chloro-thiophen-2-yl)-[1,2,4]oxadiazol-3-yl]-phenyl}-dimethyl-amine], the values for the EC50 in experiment [1], in experiment [2] and in experiment [3] were greater than 40 µM, greater than 10 µM and greater than 40 µM, respectively.
